Experimental data published in US20170065564A1, “BIS-CYCLIC GUANIDINE COMPOUND COMPOSITIONS, METHODS OF USE AND TREATMENT THEREOF” (University of South Florida, priority 2014, published 2017).

Columns and labels:
[1] = test system: Acinetobacter baumannii biofilm; test: Minimum biofilm eradication concentration (MBEC) assay; format: cell-based; settings: 24 h biofilm, purified compound
Protocol: (§1) The minimum biofilm eradication concentration (MBEC) was determined in 96-well microtiter plates as follows. Broth cultures of ESKAPE strains were grown using the conditions described above. Biofilms for each of the ESKAPE pathogens were generated from these as we have previously described for S. aureus, however human serum was not used for non-staphylococcal organisms.^44 46 For all organisms, biofilms were developed by standardizing an overnight culture into fresh media to an OD600 of 0.5 and adding 150 μl into each well of a 96-well microtiter plate. […] These cultures were incubated at 37° C. overnight alongside no drug controls. After 24 hours, the media was removed from wells and the biofilm resuspended in phosphate buffered saline (PBS). Cultures were mixed by vigorous pipetting, before being serially diluted in PBS, and plated in duplicate on relevant agar. Plates were incubated at 37° C. for 24 hours, and CFUs determined by enumeration. Each analysis was performed using three technical replicates, and antibiofilm activity was determined by comparing treated to untreated samples.

[2] = test system: Klebsiella pneumoniae biofilm; test: as above; format: cell-based; settings: 24 h biofilm, purified compound
Protocol: as §1

[3] = test system: K. pneumoniae; test: Resistance serial passage assay; format: cell-based, Klebsiella pneumoniae; settings: 8 passages, concentration doubled each day
Protocol: ESKAPE pathogens were grown overnight in liquid media at 37° C. These cultures were then diluted 1:100 in fresh media, and seeded into a 96-well plate. Lead bis-cyclic guanidines or control agents were added to respective wells at half MIC concentrations. Plates were then incubated for 24 hours at 37° C., with bacteria removed from these cultures on the following day, to inoculate fresh media (1:100 dilution) containing compounds at a 2-fold higher concentrations. These were then grown overnight, and the procedure repeated for a total of eight days. […] Each experiment was performed in triplicate, yielding identical results.

[4] = test system: P. aeruginosa; test: MIC reanalysis in the presence of the efflux inhibitor reserpine; format: cell-based, Pseudomonas aeruginosa
Description: (§2) Given the minor variations observed in MIC for three of the Gram-negative organisms, and that these particular bacteria are renowned for efflux detoxification of antibacterial agents, we hypothesized that the differences observed likely relate to variation in efflux pump activity between strains. […] The effects observed appear to be universal, regardless of strain or compound tested. […] It should be noted that the data presented herein represents a worst-case scenario. […] Similar data was returned for all front runner agents, against all 10 isolates of the three Gram-negative organisms (data not shown). These findings support the hypothesis that inherent efflux mechanisms of certain Gram-negative organisms result in MIC variations for the lead bis-cyclic guanidines between clinical isolates.

[5] = test system: P. aeruginosa; format: cell-based, Pseudomonas aeruginosa; settings: 8 passages, concentration doubled each day
Protocol: ESKAPE pathogens were grown overnight in liquid media at 37° C. These cultures were then diluted 1:100 in fresh media, and seeded into a 96-well plate. Lead bis-cyclic guanidines or control agents were added to respective wells at half MIC concentrations. […] These were then grown overnight, and the procedure repeated for a total of eight days.

[6] = test system: K. pneumoniae; test: MIC reanalysis in the presence of the efflux inhibitor reserpine; format: cell-based, Klebsiella pneumoniae; settings: K. pneumoniae strain 1441; with 100 μM of reserpine
Description: as §2

[7] = test system: E. cloacae; test: as above; format: cell-based, Enterobacter cloacae; settings: E. cloacae strain 1446; with 100 μM of reserpine
Description: as §2

`CCCC[C@H]1CN(CCCC[C@H]2CNC(=N)N2CCc2cccc(C(F)(F)F)c2)C(=N)N1CCCCC1CCCCC1` [Compound 2, (S)-4-butyl-3-(4-cyclohexylbutyl)-1-(4-((S)-2-imino-3-(3-(trifluoromethyl)phenethyl)imidazolidin-4-yl)butyl)imidazolidin-2-imine] was tested, and the MBEC50 [1] was 15.84 µM, the MBEC50 [2] was 4.65 µM and the “increase in MIC after serial passage” value [3] was 8 fold.
For `CCCCCCCN1C(=N)N(CCCC[C@H]2CNC(=N)N2CCc2cccc(C(F)(F)F)c2)C[C@@H]1CCCC` [Compound 1], the MBEC50 [1] was 14.82 µM, the MBEC50 [2] was 6.97 µM and the “effect on growth, combined with reserpine” value ([4]; P. aeruginosa isolate 1420, 2 μM compound plus 100 μM reserpine) was “strongly inhibited growth”. For the same compound, the “effect on growth, agent alone” value ([4]; P. aeruginosa isolate 1420, 100 μM of reserpine or 2 μM of compound 1 individually) was “no effect”.
With `CCCCCCCN1C(=N)N(CCCC[C@H]2CNC(=N)N2CCC23CC4CC(CC(C4)C2)C3)C[C@@H]1CCCC` [Compound 19] the MBEC50 [1] was 24.07 µM, the “effect on growth, paired with reserpine” value ([4]; P. aeruginosa strain 1414, with reserpine) was “complete inhibition of growth” and the “increase in MIC after serial passage” value [3] was 8 fold. For the same compound, the “increase in MIC after serial passage” value [5] was 8 fold.
`CCCCCCCN1C(=N)N(CCCC[C@H]2CNC(=N)N2CCCCC2CCCCC2)C[C@@H]1CC1CCCCC1` [Compound 16] was tested, and the MBEC50 [1] was 14.13 µM, the MBEC50 [2] was 6.28 µM and the “effect on growth, in combination with reserpine” value [6] was “complete inhibition of growth”. The “increase in MIC after serial passage” value [3] was 8 fold and the “increase in MIC after serial passage” value [5] was 8 fold.
`CCCCCCCN1C(=N)N(CCCC[C@H]2CNC(=N)N2CCc2cccc(C(F)(F)F)c2)C[C@@H]1CC1CCCCC1` [Compound 7] was tested, and the MBEC50 [1] was 13.10 µM, the MBEC50 [2] was 4.81 µM and the “increase in MIC after serial passage” value [3] was 8 fold. The “effect on growth, in combination with reserpine” value [7] was “complete inhibition of growth”.
